In PubChem BioAssay (NCI):
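Interpolation was linear, between the two tested concentrations surrounding the appropriate level; five concentrations were tested over 48 hours in 96-well plates. The concentration for 50% growth inhibition is given as GI50. TGI is the concentration that stops growth completely.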

Experiments:
Experiment in all cases: NCI tumour cell line growth inhibition, 48 h
[1] = system: LOX IMVI melanoma
[2] = system: HCC-2998 colon
[3] = system: UACC-257 melanoma
[4] = system: MDA-MB-435
[5] = system: HCT-116 colon
[6] = system: KM12 colon
[7] = system: NCI-H522 lung
[8] = system: T-47D breast
[9] = system: A498 renal
[10] = system: ACHN renal
[11] = system: SR leukemia

Structure (SMILES) | TGI [1] [µM] | TGI [2] [µM] | TGI [3] [µM] | TGI [4] [µM] | TGI [5] [µM] | TGI [6] [µM] | TGI [7] [µM] | TGI [8] [µM] | TGI [9] [µM] | TGI [10] [µM] | TGI [11] [µM] | GI50 [8] [µM] | GI50 [2] [µM] | GI50 [4] [µM] | GI50 [6] [µM] | GI50 [10] [µM] | GI50 [7] [µM]
Cc1ccc(C(=O)N/N=C(\N=Nc2ccccc2C(=O)O)c2ccc(N(C)C)cc2)cc1 | > 100 | > 100 | > 100 | > 100 | > 100 | > 100 | > 100 | – | – | – | – | – | – | – | – | – | –
NS(=O)(=O)c1ccc(NCc2nc3ccccc3[nH]2)cc1 | > 100 | – | > 100 | > 100 | > 100 | > 100 | > 100 | > 100 | > 100 | > 100 | – | – | – | – | – | – | –
CN1C/C(=C\c2cccs2)C(=O)/C(=C/c2cccs2)C1 | 41 | 45.5 | > 100 | 34.1 | 34.4 | 83.3 | > 100 | 92.6 | 71.2 | 66.1 | – | – | – | – | – | – | –
Cc1ccc(C)c2c1n1c(=O)n(C)c(=O)n21 | > 100 | > 100 | > 100 | > 100 | > 100 | > 100 | > 100 | > 100 | > 100 | > 100 | – | – | – | – | – | – | –
CC(C)=CCC[C@@H](C)C1=C(O)C(Nc2ccccc2)=C(C)C(=O)C1=O | > 100 | > 100 | > 100 | > 100 | > 75.6 | > 100 | – | 59.7 | 87.1 | 36.1 | > 100 | – | – | – | – | – | –
NC(=S)NS(=O)(=O)c1ccc(Cl)cc1 | > 100 | > 100 | > 100 | > 100 | > 100 | > 100 | > 100 | > 100 | – | > 100 | – | – | – | – | – | – | –
CC1CN=C(c2ccc(CN3CCC(CCCC4CCN(Cc5ccc(C6=NCC(C)N6)cc5)CC4)CC3)cc2)N1 (configuration not stated) | > 100 | 28.7 | 45.9 | 36.7 | > 100 | 40 | 70.3 | > 100 | > 100 | > 100 | – | – | – | – | – | – | –
COc1cccc(N(CN2C(=O)CCC2OC)C(C)=O)c1 (configuration not stated) | > 100 | > 100 | > 100 | > 100 | > 100 | > 100 | – | > 100 | > 100 | > 100 | > 100 | – | – | – | – | – | –
CC1=NN2CCC(=O)N=C2S1 | > 100 | – | > 100 | > 100 | > 100 | > 100 | > 100 | > 100 | – | > 100 | > 100 | – | – | – | – | – | –
N=C(N)c1ccc(-c2ccc(-c3ccc(Cl)cc3Cl)s2)nc1 | – | 3.17 | – | 3.11 | – | 3.19 | 4.88 | 4.96 | – | 3.16 | – | 2.21 | 1.74 | 1.73 | 1.76 | 1.77 | 2.19
CCOC(=O)CCC(NC(=O)c1ccc(Nc2nc3ccccc3nc2C(=O)OCC)s1)C(=O)OCC (configuration not stated) | > 100 | > 100 | > 100 | > 100 | > 100 | > 100 | > 100 | > 100 | > 100 | – | > 100 | – | – | – | – | – | –
CC1=NN(c2nc(N)nc(-c3cc4ccccc4oc3=N)n2)C(C)(C)C1 | – | 28.8 | 31.4 | 41.8 | 35.5 | 34.2 | 39.9 | 34.3 | 66.9 | 34.8 | 46.8 | – | – | – | – | – | –
CCOP(=O)(Cc1nc(C#N)c(N)o1)OCC | > 100 | > 100 | > 100 | > 100 | > 100 | > 100 | > 100 | – | > 100 | > 100 | > 100 | – | – | – | – | – | –
CCCCCCCCCCOc1ccc(N=Nc2nnc(-c3ccc(OCCCCC)cc3)s2)cc1 | > 100 | > 100 | > 100 | > 100 | > 100 | > 100 | > 100 | > 100 | > 100 | > 100 | – | – | – | – | – | – | –
CCN(CCC#N)C(=O)Nc1ccccc1 | > 100 | > 100 | > 100 | > 100 | > 100 | > 100 | > 100 | > 100 | – | > 100 | – | – | – | – | – | – | –
c1ccc(OCc2nnc(CCCCCCCCc3nnc(COc4ccccc4)o3)o2)cc1 | > 100 | > 100 | > 100 | > 100 | > 100 | > 100 | > 100 | – | > 100 | > 100 | – | – | – | – | – | – | –
CCOC(=O)Cc1cc(=O)[nH]c(-n2[nH]c(C)c(CCO)c2=O)n1 | > 100 | > 100 | > 100 | > 100 | > 100 | > 100 | > 100 | > 100 | > 100 | > 100 | – | – | – | – | – | – | –

Structure (SMILES) | TGI [1] [µM] | TGI [2] [µM] | TGI [3] [µM] | TGI [4] [µM] | TGI [5] [µM] | TGI [6] [µM] | TGI [7] [µM] | TGI [8] [µM] | TGI [9] [µM] | TGI [10] [µM] | TGI [11] [µM] | GI50 [8] [µM] | GI50 [2] [µM] | GI50 [4] [µM] | GI50 [6] [µM] | GI50 [10] [µM] | GI50 [7] [µM]
O=C1c2cc3ncsc3cc2C(=O)c2c(O)ccc(O)c21 | > 100 | > 100 | > 100 | > 100 | > 100 | > 100 | > 100 | – | > 100 | > 100 | > 100 | – | – | – | – | – | –
O=c1onc(Nc2ccccc2)n1-c1ccccc1 | > 100 | > 100 | > 100 | – | > 100 | > 100 | – | – | > 100 | > 100 | > 100 | – | – | – | – | – | –
CCN(CC)C(=O)c1cc([N+](=O)[O-])c(=O)n2c1[nH]c1ccccc12 | > 100 | > 100 | > 100 | > 100 | > 100 | > 100 | > 100 | > 100 | – | > 100 | > 100 | – | – | – | – | – | –
COc1cc(-c2nc(SC)nc3c2CCc2ccccc2-3)cc(OC)c1OC | > 100 | > 100 | > 100 | > 100 | > 100 | > 100 | – | > 100 | > 100 | > 100 | – | – | – | – | – | – | –
C=C(Cl)CN1c2ccccc2C=Cc2ccccc21 | 52.4 | 33.7 | 49.8 | 44.7 | 29 | 48.9 | 82 | 65.2 | 66.9 | 35.4 | – | – | – | – | – | – | –
Clc1ncnc2c1nc(C#Cc1ccccc1)n2C1CCCCO1 (configuration not stated) | 4.79 | 3.54 | 6.01 | 5.84 | 4.02 | 3.05 | 3.65 | 4.55 | 8.84 | 3.06 | – | – | – | – | – | – | –
CC1C(c2ccccc2)NC(c2ccccc2)CC1(N)C#N (configuration not stated) | > 100 | > 100 | > 100 | > 100 | > 100 | > 100 | > 100 | > 100 | – | > 100 | > 100 | – | – | – | – | – | –
N#Cc1c(N2CCCC2)nsc1Nc1ccccc1 | > 100 | > 100 | > 100 | – | > 100 | > 100 | – | > 100 | > 100 | > 100 | > 100 | – | – | – | – | – | –
NNS(=O)(=O)c1ccc(/C=C2\NC(=O)NC2=O)cc1 | > 100 | > 100 | > 100 | > 100 | > 100 | > 100 | – | > 100 | > 100 | > 100 | – | – | – | – | – | – | –
Cc1ccsc1/C=N/Nc1cc(C)c2ccccc2n1 | 25.9 | 31.7 | 21 | 30 | 28.7 | 46 | – | > 100 | 23 | 34.9 | – | – | – | – | – | – | –
Cn1c(-c2c(C3=CC(=O)N(c4ccccc4)C3=O)c3ccccc3n2C)cc2ccccc21 | > 100 | > 100 | > 100 | > 100 | > 100 | > 100 | > 100 | > 100 | – | > 100 | > 100 | – | – | – | – | – | –
COc1cc2nc(-c3cccs3)nc(N3C(c4cc(OC)c(OC)c(OC)c4)=NNC(=O)c4ccccc43)c2cc1OC | 45.8 | – | > 100 | 32.1 | > 100 | > 100 | > 100 | > 100 | > 100 | > 100 | > 100 | – | – | – | – | – | –
Cc1oc2nc(N(C)C)n3cnnc3c2c1C | – | > 100 | > 100 | > 100 | > 100 | > 100 | > 100 | > 100 | > 100 | > 100 | > 100 | – | – | – | – | – | –
Cc1ccc(S(=O)(=O)NC(=O)NC(CC(=O)O)C(=O)O)cc1 (configuration not stated) | > 100 | – | > 100 | – | > 100 | > 100 | > 100 | > 100 | – | > 100 | > 100 | – | – | – | – | – | –
O=C(NNc1nc(-c2ccccc2)cs1)Nc1ccccc1 | – | 70.6 | 59.3 | 65.8 | 58.5 | > 100 | – | 66.8 | – | > 100 | – | – | – | – | – | – | –
CNC(=O)C1OC(n2cnc3c(NCc4cccc(I)c4)nc(Cl)nc32)C(O)C1O (configuration not stated) | 27.2 | – | 23.8 | 27 | 41.7 | 24.3 | – | 61.8 | 33.7 | 24 | 59.6 | – | – | – | – | – | –
COc1ccc(/C=C(/c2ccc(OC)cc2)c2c(Cl)cc(Cl)c(/C(=C\c3ccc(OC)cc3)c3ccc(OC)cc3)c2N=Nc2ccccc2)cc1 | > 100 | > 100 | > 100 | > 100 | > 100 | > 100 | > 100 | > 100 | > 100 | > 100 | – | – | – | – | – | – | –
